Reference: patent publication US9796753B2, “N-substituted indenoisoquinolines and syntheses thereof” (Purdue Research Foundation, priority 2005, dated 2017)
pIC50: −log10 of the molar value. Read-outs that look alike come from different tables or passages of the source.

Assays:
[1] = target: recombinant TDP1 (Homo sapiens, UniProt Q9NUW8); test: Gel-based assay measuring the inhibition of recombinant TDP1; assay type: biochemical; conditions: Table 7; scores correspond to IC50 ranges; read-out: TDP1 inhibition
Description: A 5′-[^32P]-labeled single-stranded DNA oligonucleotide containing a 3′-phosphotyrosine (N14Y) was generated as described by Dexheimer et al. (J. Med. Chem. 2009, 52, 7122-7131). The DNA substrate was then incubated with 5 μM recombinant TDP1 in the absence or presence of inhibitor for 15 min at room temperature in a buffer containing 50 mM Tris HCl, pH 7.5, 80 mM KCl, 2 mM EDTA, 1 mM DTT, 40 μg/ml BSA and 0.01% Tween-20. Reactions were terminated by the addition of 1 volume of gel loading buffer [99.5% (v/v) formamide, 5 mM EDTA, 0.01% (w/v) xylene cyanol, and 0.01% (w/v) bromophenol blue]. Samples were subjected to a 16% denaturing PAGE and gels were exposed after drying to a PhosphorImager screen (GE Healthcare). Gel images were scanned using a Typhoon 8600 (GE Healthcare) and densitometric analyses were performed using the ImageQuant software (GE Healthcare).
The TDP1 inhibitory activities of the O-2-substituted indenoisoquinolines were measured by determining their abilities to inhibit the hydrolysis of the phosphodiester linkage between tyrosine and the 3′-end of a DNA oligonucleotide substrate and thus prevent the generation of an oligonucleotide with a free 3′-phosphate (N14P, Scheme 13). Therefore, the disappearance of the gel band for N14P indicates TDP1 inhibition.
Tyrosyl-DNA phosphodiesterase 1 (TDP1) is a DNA repair enzyme that repairs cytotoxic DNA damage induced by Top1 inhibitors.

[2] = tested on: all human cancer cell lines successfully tested; test: NCI screen mean graph midpoint (MGM) for growth inhibition; assay type: cell-based; conditions: for GI50: Homo sapiens, read-out: MGM GI50
Outline: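 NCI60 panel cells exposed to compound at 100, 10, 1, 0.1 and 0.01 μM for 48 h, then sulforhodamine B staining. Percentage growth versus control plotted against log concentration; MGM is the midpoint across all lines tested.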

[3] = tested on: breast MDA-MB-435; test: COMPARE screening (NCI human cancer cell line screen), cytotoxicity GI50; assay type: cell-based
[4] = tested on: ovarian OVCAR-3; test: as above; assay type: cell-based; conditions: concentration corresponding to 50% growth inhibition
Outline: (§1)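 Sulforhodamine B read-out after 48 h exposure over five log concentrations (0.01-100 μM) in the NCI 60-cell-line panel. GI50 derived from percentage growth, as OD ratio to control, versus log10 concentration.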

[5] = tested on: lung HOP-62; test: as above; assay type: cell-based
Outline: as §1

[6] = tested on: melanoma UACC-62; test: as above; assay type: cell-based
Outline: as §1

[7] = tested on: CNS SF-539; test: as above; assay type: cell-based
Outline: as §1

[8] = tested on: colon HCT-116; test: as above; assay type: cell-based
Outline: as §1

[9] = tested on: renal SN12C; test: as above; assay type: cell-based
Outline: as §1

[10] = tested on: prostate DU-145; test: as above; assay type: cell-based
Outline: as §1

[11] = tested on: panel of twelve human tumor cell lines; test: Hollow fiber assay; assay type: in vivo; design: key to IP Score / SC score / Total score: 2 points each time viable cell mass falls ≥50% vs vehicle controls; conditions: for IP Score: intraperitoneal fibers in athymic nude mice, score 2 per 50% or greater reduction in viable cell mass; for IP Score / SC score: compounds IP once daily, four doses, two dose levels; for SC score: subcutaneous fibers in athymic nude mice; for Total score: sum of IP and SC scores
Description: Hollow Fiber Activity. […] The effects of the compounds on the reduction of viable cancer cell mass compared to those of controls were determined. Each compound was tested in the hollow fiber assay against a panel of twelve human tumor cell lines as described previously; see, Hollingshead, M.; Plowman, J.; Alley, M.; Mayo, J.; Sausville, E., The Hollow Fiber Assay. Contrib. Oncol. 1999, 54, 109-120; and Plowman, J.; Camalier, R.; Alley, M.; Sausville, E.; Schepartz, S. Contrib. Oncol. […] The compounds were solubilized in 10% DMSO in saline/Tween-80® and administered intraperitoneally once daily for a total of four doses at each of two dose levels. The two doses were selected based on single dose toxicity studies for each derivative. A score of 2 was assigned each time the compound produced a 50% or greater reduction in viable cell mass compared to vehicle-treated controls. The score for each compound was summed for the intraperitoneal fibers and the subcutaneous fibers to provide the total score for each derivative as shown in Table 3 and Table 4. For comparative purposes, the score for the clinically used anticancer drug paclitaxel is provided.

[12] = Table 1, read-out: cytotoxicity (GI50) ovarian OVCAR-3
[13] = Table 1, average GI50 of all cell lines tested (approximately 55), test range 10^−8 to 10^−4 molar

Sequence of recombinant TDP1 (Q9NUW8 whole entry): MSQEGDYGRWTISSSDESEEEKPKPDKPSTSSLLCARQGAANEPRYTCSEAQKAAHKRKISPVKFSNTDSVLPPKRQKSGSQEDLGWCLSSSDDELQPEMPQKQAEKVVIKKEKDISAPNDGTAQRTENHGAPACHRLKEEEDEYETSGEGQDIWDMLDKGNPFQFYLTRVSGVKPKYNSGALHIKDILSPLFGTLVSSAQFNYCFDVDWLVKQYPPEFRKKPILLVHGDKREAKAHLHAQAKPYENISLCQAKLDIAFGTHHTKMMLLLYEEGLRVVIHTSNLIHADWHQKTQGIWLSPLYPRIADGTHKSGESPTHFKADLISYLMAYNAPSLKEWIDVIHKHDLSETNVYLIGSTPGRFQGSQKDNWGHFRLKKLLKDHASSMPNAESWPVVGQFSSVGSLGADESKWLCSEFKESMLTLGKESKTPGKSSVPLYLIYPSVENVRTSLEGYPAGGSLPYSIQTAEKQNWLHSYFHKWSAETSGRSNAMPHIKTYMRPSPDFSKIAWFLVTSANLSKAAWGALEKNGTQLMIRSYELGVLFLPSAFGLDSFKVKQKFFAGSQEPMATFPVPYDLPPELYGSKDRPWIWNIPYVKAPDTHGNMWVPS

With `O=C1c2cc3c(cc2-c2c1c1ccc(Cl)cc1c(=O)n2CCCn1ccnc1)OCO3` [Compound 39] as the molecule, how does the pIC50 [1] read?
Its pIC50 is 3.95 to 4.43.

And the GI50 [2]?
The GI50 was 24 nM.

Which results are given for `O=C1c2cc3c(cc2-c2c1c1ccc(Cl)cc1c(=O)n2CCCNCCO)OCO3` [Compound 41]?
pIC50 [1]: 4.92 to 6.00; GI50 [2]: 229 nM

`O=C1c2cc3c(cc2-c2c1c1ccc(F)cc1c(=O)n2CCCNCCO)OCO3` [Compound 38] was tested. Which pIC50 [1] did it give?
The pIC50 was 4.92 to 6.00.

And the GI50 [2]?
The GI50 was 55 nM.

How did the pIC50 [1] turn out when `O=C1c2cc3c(cc2-c2c1c1cc(F)c(F)cc1c(=O)n2CCCn1ccnc1)OCO3` [Compound 42] was run?
The pIC50 was under 3.95.

What about the GI50 [2] of the same molecule?
The GI50 was 30 nM.

How did the pIC50 [1] turn out when `O=C1c2cc3c(cc2-c2c1c1ccc(F)cc1c(=O)n2CCCn1ccnc1)OCO3` [Compound 36] was run?
Its pIC50 is under 3.95.

And the GI50 [2]?
The GI50 was 11 nM.

Which results are given for `COc1cc2c3c(n(CCCN4CCNCC4)c(=O)c2cc1OC)-c1cc2c(cc1C3=O)OCO2.Cl.Cl` [Compound 5p, 6-(3-Piperazinyl-1-propyl)-5,6-dihydro-2,3-dimethoxy-8,9-methylenedioxy-5,11-dioxo-11H-indeno[1,2-c]isoquinoline Dihydrochloride]?
GI50 [3]: 4.57 µM; GI50 [4, 12]: 2.04 µM; GI50 [5]: < 0.005 µM; GI50 [6]: 1.2 µM; GI50 [7]: < 0.005 µM; GI50 [8]: 0.575 µM; GI50 [9]: 0.091 µM; GI50 [10]: 0.015 µM; IP Score ([11]; Table 3): 16; SC score ([11]; Table 3): 2; Total score ([11]; Table 3): 18; MGM (mean graph midpoint for growth inhibition) [2, 13]: 0.382 ± 0.119 µM

What does the source list for `O=C1c2cc3c(cc2-c2c1c1cc(Cl)c(Cl)cc1c(=O)n2CCCn1ccnc1)OCO3` [Compound 44]?
pIC50 [1]: < 3.95; GI50 [2]: 17 nM

How did the GI50 ([3]; breast MDA-MB-435, concentration corresponding to 50% growth inhibition, read-out: cytotoxicity (GI50 in μM) breast MDA-MB-435) turn out when `O=C(O)C(F)(F)F.O=C(O)C(F)(F)F.O=C1c2ccccc2-c2c1c1ccccc1c(=O)n2CCNCCCNCCn1c2c(c3ccccc3c1=O)C(=O)c1ccccc1-2` [Compound 14d, Bis-1,3-{(5,6-dihydro-5,11-diketo-11H-indeno[1,2-c]isoquinoline)-6-ethylamino}propane Bis(trifluoroacetate)] was run?
Its GI50 is 0.024 µM.

What about the GI50 ([4]; ovarian OVCAR-3, read-out: cytotoxicity (GI50 in μM) ovarian OVCAR-3) of the same molecule?
The GI50 was 0.093 µM.

What about the GI50 ([5]; lung HOP-62, concentration corresponding to 50% growth inhibition, read-out: cytotoxicity (GI50 in μM) lung HOP-62) of the same molecule?
The GI50 was 0.339 µM.

What about the GI50 ([6]; melanoma UACC-62, concentration corresponding to 50% growth inhibition, read-out: cytotoxicity (GI50 in μM) melanoma UACC-62) of the same molecule?
The GI50 was 0.182 µM.

And the GI50 ([7]; CNS SF-539, concentration corresponding to 50% growth inhibition, read-out: cytotoxicity (GI50 in μM) CNS SF-539)?
Its GI50 is 0.155 µM.

And the GI50 ([8]; colon HCT-116, concentration corresponding to 50% growth inhibition, read-out: cytotoxicity (GI50 in μM) colon HCT-116)?
The GI50 was under 0.005 µM.

And the GI50 ([9]; renal SN12C, concentration corresponding to 50% growth inhibition, read-out: cytotoxicity (GI50 in μM) renal SN12C)?
The GI50 was under 0.005 µM.

What about the GI50 ([10]; prostate DU-145, concentration corresponding to 50% growth inhibition, read-out: cytotoxicity (GI50 in μM) prostate DU-145) of the same molecule?
The GI50 was 0.079 µM.

What about the “IP Score” value ([11]; Table 4) of the same molecule?
The value was 2.

And the SC score ([11]; Table 4)?
The SC score was 4.

And the Total score ([11]; Table 4)?
Its Total score is 6.

And the “MGM (mean graph midpoint for growth inhibition)” value ([2]; all human cancer cell lines successfully tested)?
Its value is 0.122 ± 0.064 µM.

`COc1cc2c3c(n(CCCN4CCCC(O)C4)c(=O)c2cc1OC)-c1cc2c(cc1C3=O)OCO2.Cl` (stereo not shown) [Compound 5s, 6-[3-(3-Hydroxypiperidinyl)-1-propyl]-5,6-dihydro-2,3-dimethoxy-8,9-methylenedioxy-5,11-dioxo-11H-indeno[1,2-c]isoquinoline Hydrochloride] was tested. Which GI50 [3] did it give?
Its GI50 is 0.977 µM.

And the GI50 [4, 12]?
The GI50 was 5.75 µM.

What about the GI50 [5] of the same molecule?
The GI50 was under 0.005 µM.

And the GI50 [6]?
Its GI50 is 5.01 µM.

What about the GI50 [7] of the same molecule?
Its GI50 is under 0.005 µM.

And the GI50 [8]?
The GI50 was under 0.005 µM.

And the GI50 [9]?
The GI50 was 0.126 µM.

And the GI50 [10]?
The GI50 was under 0.005 µM.

And the “IP Score” value ([11]; Table 3)?
The value was 6.

What about the SC score ([11]; Table 3) of the same molecule?
Its SC score is 0.

And the Total score ([11]; Table 3)?
Its Total score is 6.

And the “MGM (mean graph midpoint for growth inhibition)” value [2, 13]?
Its value is 0.243 ± 0.088 µM.

How did the pIC50 [1] turn out when `O=C1c2cc3c(cc2-c2c1c1ccc(F)cc1c(=O)n2CCCN1CCOCC1)OCO3` [Compound 37] was run?
Its pIC50 is under 3.95.
